In US10334854B2, “Herbicide combinations comprising glufosinate and indaziflam” (BAYER CROPSCIENCE AKTIENGESELLSCHAFT, priority 2016, dated 2019):

Experiments:
Lolium multiflorum = assay: Greenhouse pot trial, post-emergence herbicidal activity; assay type: in vivo; settings: single post-emergence treatment, 12 g/ha of indaziflam, BBCH growth stage 11-12
Experimental: (§1) In separate pots, biological trials were conducted in the greenhouse under identical conditions (apart from the treatment with the different products P1 and P2 mentioned above). Each pot contained the same soil and the same amount of seeds of each of the following weeds (two monocotyledonous and two dicotyledonous harmful plant species (weed species)):
(§2) Tables 1 to 4 reflect the respective observed herbicidal activity ratings after treatment of the monocotyledonous harmful plant species (BBCH growth stage 11) and dicotyledonous harmful plant species (BBCH growth stage 10) for the different products applied once in post-emergence.
(§3) The observation period in each case was 40 days after start of treatment with the respective products P1 and P2 mentioned above, both in amounts of 3 L/ha and 5 L/ha, respectively.
(§4) Tables 5 to 8 reflect the respective observed herbicidal activity ratings after treatment of the monocotyledonous harmful plant species (BBCH growth stage 12-13) and dicotyledonous harmful plant species (BBCH growth stage 12) for the different products applied once in post-emergence. The observation period in each case was 40 days after start of treatment with the respective products P1 and P2 mentioned above, both in amounts of 3 L/ha and 5 L/ha, respectively.
(§5) Table 9 reflects the post-emergence efficacy of indaziflam [the ratio by weight of the (1*R)-1-fluoroethyl diastereoisomer of indaziflam to the ratio by weight of the (1*S)-1-fluoroethyl diastereoisomer of indaziflam was about 95:5] on the above mentioned weeds (two monocotyledonous and two dicotyledonous harmful plant species (weed species)) AMARE, STEME, LOLMU and POOAN, each at BBCH growth stage 11-12. Indaziflam was used in an amount of 12 g/ha.

Amaranthus retroflexus = assay: as above; assay type: in vivo; settings: single post-emergence treatment, 12 g/ha of indaziflam, BBCH growth stage 11-12
Experimental: as §1, §2, §3, §4, §5

Stellaria media = assay: as above; assay type: in vivo; settings: single post-emergence treatment, 12 g/ha of indaziflam, BBCH growth stage 11-12
Experimental: as §1, §2, §3, §4, §5

Poa annua = assay: as above; assay type: in vivo; settings: single post-emergence treatment, 12 g/ha of indaziflam, BBCH growth stage 11-12
Experimental: as §1, §2, §3, §4, §5

[1] = tested on: monocotyledonous and dicotyledonous harmful plant species; settings: stated as known; cited from earlier work

Compound: Cc1ccc2c(c1)[C@H](Nc1nc(N)nc([C@@H](C)F)n1)[C@@H](C)C2 (mixture of isomers) [indaziflam, N^2-[(1R,2S)-2,3-dihydro-2,6-dimethyl-1H-inden-1-yl]-6-[(1RS)-1-fluoroethyl]-1,3,5-triazine-2,4-diamine]
- Regrowth (ratings of herbicidal activity) (Lolium multiflorum): no herbicidal effect
- Regrowth (ratings of herbicidal activity) (Amaranthus retroflexus): very weak herbicidal effect starting on day 7 after treatment
- Regrowth (ratings of herbicidal activity) (Stellaria media): no herbicidal effect
- Regrowth (ratings of herbicidal activity) (Poa annua): no herbicidal effect
- post-emergence efficacy [1]: insufficient
